Results on four compounds are retold here after patent US9801873B2, “Methods for treating humans having brain cancer” (priority 2008, dated 2017).

Data set [1] can be described thus: Phase 1 trial: plasma pharmacokinetics by LC-MS/MS and population PK model (SN-38 exposure and half-life). The settings on record: plasma analyte after administration of Compound I.
Protocol: Tumor responses were evaluated according to RECIST (Response Evaluation Criteria in Solid Tumors) criteria.
The test system of another data set is A2780 ovarian tumors. As to conditions: for activity in A2780 ovarian tumor model: 3 weekly intra-peritoneal administrations; for tumor growth delay (TGD): 3 weekly intravenous injections. As for the experimental part:
Anti-tumor efficacy was evaluated based on tumor growth delay (TGD) in mice and response rate in mice and humans.
Animals were weighed and monitored twice weekly, and tumor volumes were measured until an endpoint was met (2000 mm^3 or 60 days). Anti-tumor efficacy was evaluated based on tumor growth delay and response rate or partial or complete regression (PR or CR). In a PR, the tumor volume was 50% or less of its Day 1 volume for three consecutive measurements, and equal to or greater than 14 mm^3 for one or more of these three measurements. In a CR, the tumor volume was less than 14 mm^3 for three consecutive measurements. An animal with a CR response at termination was additionally classified as tumor-free survivior (TFS). A Student's T-test was performed to calculate statistical significance (p<0.05).

For data set [2] the following is noted: cited from earlier work.

Each structure is given as a SMILES string. Read-outs that look alike come from different tables or passages of the source.

On to `CCc1c2c(nc3ccc(O)cc13)-c1cc3c(c(=O)n1C2)COC(=O)[C@]3(O)CC` [SN-38, 7-ethyl-10-hydroxy camptothecin], for which, in data set [1], the “T1/2 λz, In Responding Patients (range)” value was in the range of 14.4 to 98.3 days and the “T1/2 λz, Population Estimate in Responding Patients” value is reported as 49.1 days.
With `N.N.O=C([O-])C1(C(=O)[O-])CCC1.[Pt+2]` [carboplatin], the “activity in A2780 ovarian tumor model” value with A2780 ovarian tumors is “inactive”.
On the same count and under the same terms, to `N.N.[Cl][Pt][Cl]` [cisplatin] belongs “inactive”.
For the compound `CCc1c2c(nc3ccc(OC(=O)N4CCC(N5CCCCC5)CC4)cc13)-c1cc3c(c(=O)n1C2)COC(=O)[C@]3(O)CC` [irinotecan], the SN-38 plasma levels in data set [2] (higher doses (2.8, 4.6 mg/m^2 per day), dosing period of 63 days) is 2 to 4 ng/mL; in data set [2] (lowest dose (1.4 mg/m^2 per day continuous iv infusion), up to 63 days), “around 1 ng/ml”. In addition, the “tumor growth delay (TGD)” value in the data set with A2780 ovarian tumors (50 mg/kg) came out at 12 days; in the data set on A2780 ovarian tumors (100 mg/kg), 15 days; in the data set with A2780 ovarian tumors (150 mg/kg), 16 days. In the data set with A2780 ovarian tumors (3 weekly intravenous doses of 50, 100, or 150 mg/kg), the tolerability in mice result was “acute effects immediately after dosing (tremors, hypoactivity, ataxia, pilo-erection, increased stool production)”. The “partial responses (PR)” value in the data set on A2780 ovarian tumors (highest dose (150 mg/kg), n=10) is given as “one partial response (PR)”.
